From article PMC12442245, “Activity Analysis of the P2X Receptor Antagonist PPADS against Signal Transducer and Activator of Transcription Proteins” (Chembiochem, 2025)

Legend:
STAT1 = biological target: T1, STAT1 (Homo sapiens, UniProt P42224); assay: Competitive fluorescence polarization (FP) assay, STAT1; type: binding
T1 sequence (P42224 1-750): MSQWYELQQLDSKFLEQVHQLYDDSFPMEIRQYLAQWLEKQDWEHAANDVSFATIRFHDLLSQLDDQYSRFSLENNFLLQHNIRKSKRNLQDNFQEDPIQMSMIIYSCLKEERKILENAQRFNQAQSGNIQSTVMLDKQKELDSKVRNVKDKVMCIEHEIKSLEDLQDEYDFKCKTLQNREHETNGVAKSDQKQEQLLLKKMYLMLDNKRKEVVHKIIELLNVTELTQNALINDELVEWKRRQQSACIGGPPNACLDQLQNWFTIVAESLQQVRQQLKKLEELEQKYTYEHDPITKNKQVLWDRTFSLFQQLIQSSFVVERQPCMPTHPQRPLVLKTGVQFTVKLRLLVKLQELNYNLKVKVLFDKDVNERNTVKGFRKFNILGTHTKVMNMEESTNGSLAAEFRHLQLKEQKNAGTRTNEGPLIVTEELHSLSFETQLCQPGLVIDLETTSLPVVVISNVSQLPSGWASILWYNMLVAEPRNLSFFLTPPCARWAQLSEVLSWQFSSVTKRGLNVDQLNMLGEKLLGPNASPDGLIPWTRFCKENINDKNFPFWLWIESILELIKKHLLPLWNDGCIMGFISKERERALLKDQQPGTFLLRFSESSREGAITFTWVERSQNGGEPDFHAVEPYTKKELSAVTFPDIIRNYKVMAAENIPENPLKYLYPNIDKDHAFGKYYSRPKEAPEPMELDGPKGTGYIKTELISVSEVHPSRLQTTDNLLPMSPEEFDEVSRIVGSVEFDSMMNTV
From the text: Screening of chemical libraries
Screening of chemical libraries comprising approximately 5000 known bioactive compounds in fluorescence polarization-based assays against phosphorylation-dependent protein-protein interaction domains, including STAT proteins, has been described.[1] PPADS was purchased from Sigma-Aldrich, and iso-PPADS from Bio-Techne.
(§1) Fluorescence polarization assays
(§2) Competitive fluorescence polarization (FP) assays for STAT1,[2] STAT3,[3] STAT4,[4] STAT5a,[5] STAT5b[6] and STAT6[1] were performed as previously described. Briefly, peptide binding to proteins was analyzed using the following carboxyfluorescein (CF) -labelled pepti des at a concentration of 10 nM: STAT1: 5-CF-GpYDKPHVL-OH, STAT3: 5-CF-GpYLPQTV -NH2, STAT4: 5-CF-GpYLPQNID-OH, STAT5a and STAT5b: 5-CF-GpYLVLDKW-OH, STAT6: 5- […]
CFGp[…]-OH. Proteins were used at a final concentration representing the approximate Kd value for binding of the corresponding peptide to the protein, namely 65 nM for STAT1, 65 nM for STAT3, 35 nM for STAT4, 125 nM for STAT5a, 65 nM for STAT5b and 75 nM for STAT6. Assays were carried out in buffer containing 10 mM Tris/HCl, 50 mM NaCl, 1 mM EDTA, 0.1% NP-40 substitute and 2% DMSO, with 1 mM reducing agent where applicable, at pH 8.0. […] FP was measured using an Infinite F500 plate reader (Tecan) and measurements were converted into percent inhibition according to […]

STAT6 = biological target: T2, STAT6 (Homo sapiens, UniProt P42226); assay: Competitive fluorescence polarization (FP) assay, STAT6; type: binding; settings: no reducing agent, 1 h
T2 sequence (P42226 1-847): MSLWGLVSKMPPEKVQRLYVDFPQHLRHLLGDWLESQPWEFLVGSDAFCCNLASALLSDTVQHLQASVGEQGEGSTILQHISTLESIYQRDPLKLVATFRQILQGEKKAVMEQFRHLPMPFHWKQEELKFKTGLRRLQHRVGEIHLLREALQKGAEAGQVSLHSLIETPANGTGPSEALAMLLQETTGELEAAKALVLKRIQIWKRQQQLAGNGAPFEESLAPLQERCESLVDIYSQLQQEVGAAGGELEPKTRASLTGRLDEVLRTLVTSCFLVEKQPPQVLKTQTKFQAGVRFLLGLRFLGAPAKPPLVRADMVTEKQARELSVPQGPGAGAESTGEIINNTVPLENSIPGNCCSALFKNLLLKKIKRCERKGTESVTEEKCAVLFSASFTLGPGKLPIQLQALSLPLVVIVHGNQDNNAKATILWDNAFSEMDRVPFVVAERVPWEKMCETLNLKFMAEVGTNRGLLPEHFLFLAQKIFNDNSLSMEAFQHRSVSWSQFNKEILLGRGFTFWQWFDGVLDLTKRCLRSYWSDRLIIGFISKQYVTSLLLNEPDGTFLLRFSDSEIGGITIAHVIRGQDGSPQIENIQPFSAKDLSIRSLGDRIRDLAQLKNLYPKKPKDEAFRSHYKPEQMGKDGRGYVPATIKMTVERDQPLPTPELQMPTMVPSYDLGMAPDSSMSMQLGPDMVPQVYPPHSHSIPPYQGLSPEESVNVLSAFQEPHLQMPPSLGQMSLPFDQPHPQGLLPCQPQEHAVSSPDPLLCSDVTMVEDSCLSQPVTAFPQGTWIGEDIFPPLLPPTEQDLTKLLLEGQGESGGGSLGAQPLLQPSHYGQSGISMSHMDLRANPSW
Method: Screening of chemical libraries […]
PPADS was purchased […]
from Sigma-Aldrich, and iso-PPADS from Bio-Techne.
as §1, §2
CFGp[…]-OH. Proteins were used at a final concentration representing the approximate Kd value for binding of the corresponding peptide to the protein, namely 65 nM for STAT1, 65 nM for STAT3, 35 nM for STAT4, 125 nM for STAT5a, 65 nM for STAT5b and 75 nM for STAT6. Assays were carried out in buffer containing 10 mM Tris/HCl, 50 mM NaCl, 1 mM EDTA, 0.1% NP-40 substitute and 2% DMSO, with 1 mM reducing agent where applicable, at pH 8.0. Proteins were incubated with compound for 1 h at room temperature before adding peptide and incubating for a further 1 h. FP was measured using an Infinite F500 plate reader (Tecan) and measurements were converted into percent inhibition according to […]

SMILES	IC50 (STAT1; no reducing agent, 1 h) [µM]	IC50 (STAT6) [µM]	inhibition at 100 µM (STAT1; at 100 μM, the highest concentration tested) [%]
Cc1nc(/N=N/c2ccc(S(=O)(=O)O)cc2S(=O)(=O)O)c(COP(=O)(O)O)c(C=O)c1O [PPADS, pyridoxalphosphate‐6‐azophenyl‐2',4'‐disulfonic acid]	87.4 ± 6.6	20.1 ± 4.6	–
Cc1nc(/N=N/c2cc(S(=O)(=O)O)ccc2S(=O)(=O)O)c(COP(=O)(O)O)c(C=O)c1O [iso‐PPADS]	–	66 ± 12	41 ± 0.4
